Tests used:
[1] = biological target: T1, human MAO-A (Homo sapiens, UniProt P21397); test: Inhibition of MAO-A, MAO-Glo assay kit; type: biochemical; conditions: Table 2; 100 nM MAO-A, 60 min
T1 construct: purchased Sigma
T1 sequence (P21397 1-527): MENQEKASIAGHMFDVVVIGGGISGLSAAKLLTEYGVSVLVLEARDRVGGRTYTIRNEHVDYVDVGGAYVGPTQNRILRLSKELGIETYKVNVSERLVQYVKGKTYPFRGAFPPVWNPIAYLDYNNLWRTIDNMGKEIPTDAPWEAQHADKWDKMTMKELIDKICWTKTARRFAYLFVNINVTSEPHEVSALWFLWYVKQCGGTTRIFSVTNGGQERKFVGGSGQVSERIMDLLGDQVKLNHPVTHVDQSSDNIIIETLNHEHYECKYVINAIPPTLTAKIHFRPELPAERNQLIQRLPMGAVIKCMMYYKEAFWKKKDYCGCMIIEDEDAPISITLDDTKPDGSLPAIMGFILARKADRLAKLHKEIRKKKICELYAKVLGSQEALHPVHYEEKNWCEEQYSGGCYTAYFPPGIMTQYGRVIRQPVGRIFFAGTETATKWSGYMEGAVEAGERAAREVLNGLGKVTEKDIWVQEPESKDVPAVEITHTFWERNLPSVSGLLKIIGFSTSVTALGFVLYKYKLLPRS
Description: (§1) Inhibition of MAO-A and -B was determined using MAO-Glo assay kit (Promega). Following the manufacturer’s protocol, assays were performed in 384 well white plates (Corning) in the presence of 100 nM MAO-A/-B (Sigma) and MAO substrate. The final volume of each reaction mixture was 20 μL. Reactions were quenched after 60 min by adding reconstituted luciferin detection reagent (20 μL/well). 20 min after addition of detection reagent, the plate was measured in luminescence mode using Beckman DTX-880 microplate reader. IC50 calculation was done similarly.

[2] = biological target: T2, recombinant human LSD1 (Homo sapiens, UniProt O60341); test: LSD1 enzyme inhibition, HRP-coupled Amplex red assay; type: biochemical; conditions: for Selectivity index for LSD1: LSD1 versus MAO-A and -B; for fold less active against LSD1 than 10: comparator compound 10; for fold more active against LSD1 than compound 24: comparator compound 24; for selectivity for LSD1 inhibition: LSD1 over MAO-A/-B
T2 construct: Human LSD1 catalytic domain, consisting of residues 172–833; GST (N); made in house; host or cells: Escherichia coli BL21-CodonPlus
Description: Human LSD1 catalytic domain, consisting of residues 172–833, was expressed in Escherichia coli BL21-CodonPlus strain (Agilent) as a GST fusion protein, by using a pGEX-KG vector. Briefly, the cells were grown to late log phase at 37°C and then were induced overnight with 0.2 mM IPTG at 25°C. Cells were harvested and lysed by French Press in PBS buffer and the supernatant was subjected to an affinity column chromatography using the glutathione sepharose resin. The eluted LSD1 fractions were further purified with ~90% purity by gel filtration on a Superdex 200 column (GE healthcare).
Horseradish peroxidase (HRP)-coupled assay was used for the evaluation of the inhibitors, based on the reaction rate (i.e., amount of the product H2O2) being quantitatively determined by adding HRP and a HRP fluorescence substrate Amplex red.[20] 30 nM LSD1 was incubated with increasing concentrations of a compound in 50 mM phosphate buffer (pH = 7.0 containing 0.01% Brij-35) for 30 min at 25°C. […] The final volume of the reaction is 60 μL. Upon 20 min incubation, 60 μL solution containing HRP (0.01 unit) and Amplex red (80 μM) was added to quench the reaction. The fluorescence of each well was then determined using a Beckman DTX-880 microplate reader (excitation at 535; emission at 595 nm). Data were imported into Prism 5.0 (GraphPad) and the IC50 values were calculated by using the sigmoidal dose response curve fitting in the software. The reported IC50s were the mean values of at least three independent experiments.

[3] = biological target: T3, human MAO-B (Homo sapiens, UniProt P27338); test: Inhibition of MAO-B, MAO-Glo assay kit; type: biochemical; conditions: Table 2; 100 nM MAO-B, 60 min
T3 construct: purchased Sigma
T3 sequence (P27338 1-520): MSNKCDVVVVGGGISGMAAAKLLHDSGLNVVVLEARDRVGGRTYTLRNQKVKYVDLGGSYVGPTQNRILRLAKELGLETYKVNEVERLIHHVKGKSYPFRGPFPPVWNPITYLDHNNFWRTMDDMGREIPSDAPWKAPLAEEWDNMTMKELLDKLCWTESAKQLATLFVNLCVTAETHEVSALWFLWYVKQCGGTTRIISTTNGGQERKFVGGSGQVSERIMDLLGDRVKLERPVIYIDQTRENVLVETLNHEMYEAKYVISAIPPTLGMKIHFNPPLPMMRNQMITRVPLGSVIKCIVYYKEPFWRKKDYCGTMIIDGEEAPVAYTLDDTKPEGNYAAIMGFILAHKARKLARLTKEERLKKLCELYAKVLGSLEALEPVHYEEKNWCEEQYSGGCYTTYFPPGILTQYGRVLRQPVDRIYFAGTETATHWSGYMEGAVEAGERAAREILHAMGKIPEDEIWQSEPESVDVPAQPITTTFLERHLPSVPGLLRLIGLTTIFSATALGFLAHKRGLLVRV
Description: as §1

[4] = biological target: MAO-A and -B; test: Inhibition of MAO-A/-B, MAO-Glo assay kit, one range given over both enzymes; type: biochemical, human; conditions: range over both enzymes and the named compounds; read-out: IC50 against MAO-A and -B
Description: as §1

[5] = Table 1, 30 nM LSD1, 30 min preincubation, 10 μM H3K4Me2 peptide

Question: Which results are given for CN1CCN(C(=O)CNC2CC2c2ccc(-c3ccc(F)nc3)cc2)CC1 (racemic) [Compound 2, reference compound]?
Answer: IC50 [1]: 120000 nM; IC50 [2, 5]: 77 nM; IC50 ([2]; Table 2): 77 nM; Selectivity index for LSD1 ([2]; Table 2): >1,500; IC50 [3]: 480000 nM

Question: What does the source list for CN1CCN(C(=O)CNC2CC2c2ccc(Br)cc2)CC1 (racemic) [Compound 3, reference compound]?
Answer: IC50 [1]: 7300 nM; IC50 [2, 5]: 35 nM; IC50 ([2]; Table 2): 35 nM; Selectivity index for LSD1 ([2]; Table 2): >208; IC50 [3]: 16300 nM

Question: For CN1CCN(C(=O)CNC2CC2c2ccc(-c3ccc(Cl)nc3)cc2)CC1 (racemic) [Compound 4], which IC50 [2, 5] is on record?
Answer: 150 nM

Question: CN1CCN(C(=O)CNC2CC2c2ccccc2Br)CC1 (racemic) [Compound 5] was tested. Which IC50 [2, 5] did it give?
Answer: > 100000 nM

Question: For CN1CCN(C(=O)CNC2CC2c2cccc(Br)c2)CC1 (racemic) [Compound 6], which IC50 [2, 5] is on record?
Answer: > 100000 nM

Question: With NC1CC1c1ccc(OCc2ccccc2)cc1 (racemic) [Compound 7] as the compound, how does the IC50 [1] read?
Answer: 170 nM

Question: What about the IC50 [4] of the same compound?
Answer: 170 to 3100 nM

Question: What about the “fold less active against LSD1 than the corresponding compounds 1–3” value ([2]; 7 vs 1, 8 vs 2, 9 vs 3) of the same compound?
Answer: 92 fold

Question: And the IC50 [2, 5]?
Answer: 910 nM

Question: What about the IC50 ([2]; Table 2) of the same compound?
Answer: 910 nM

Question: And the “Selectivity index for LSD1” value ([2]; Table 2)?
Answer: <0.38

Question: What about the IC50 [3] of the same compound?
Answer: 350 nM

Question: For O=C(CNC1CC1c1ccc(Br)cc1)N1CCNCC1 (racemic) [Compound 10], which IC50 [1] is on record?
Answer: 18100 nM

Question: And the IC50 [2, 5]?
Answer: 64 nM

Question: And the IC50 ([2]; Table 2)?
Answer: 64 nM

Question: And the “Selectivity index for LSD1” value ([2]; Table 2)?
Answer: >280

Question: And the IC50 [3]?
Answer: 23100 nM

Question: Which results are given for O=C(CNC1CC1c1ccc(Br)cc1)N1CCCCC1 (racemic) [Compound 11]?
Answer: IC50 [1]: 260 nM; IC50 [2, 5]: 620 nM; IC50 ([2]; Table 2): 620 nM; Selectivity index for LSD1 ([2]; Table 2): <0.82; fold less active against LSD1 than 10 [2]: ~ 10 ×; IC50 [3]: 510 nM

Question: Which results are given for O=C(CNC1CC1c1ccc(Br)cc1)N1CCCC1 (racemic) [Compound 12]?
Answer: IC50 [2, 5]: 3600 nM; fold less active against LSD1 than 10 [2]: ~56 ×

Question: O=C(CNC1CC1c1ccccc1)N1CCNCC1 (racemic) [Compound 13] was tested. Which IC50 [2, 5] did it give?
Answer: 190 nM

Question: What about the “fold more active against LSD1 than 14” value ([2]; comparator compound 14) of the same compound?
Answer: ~ 7 fold

Question: Which IC50 [2, 5] does the source give for O=C(CNC1CC1c1ccccc1)N1CCCCC1 (racemic) [Compound 14] here?
Answer: 1300 nM

Question: How did the IC50 [2, 5] turn out when Brc1ccc(C2CC2NCC2CCNCC2)cc1 (racemic) [Compound 15] was run?
Answer: 260 nM

Question: For Oc1ccc(CNC2CC2c2ccc(Br)cc2)cc1 (racemic) [Compound 18], which IC50 [2, 5] is on record?
Answer: 94000 nM

Question: Which IC50 [2, 5] does the source give for Nc1ccc(CNC2CC2c2ccc(Br)cc2)cc1 (racemic) [Compound 19] here?
Answer: > 100000 nM

Question: Which IC50 [2, 5] does the source give for CN(C)c1ccc(CNC2CC2c2ccc(Br)cc2)cc1 (racemic) [Compound 20] here?
Answer: 71000 nM

Question: Which IC50 [2, 5] does the source give for Brc1ccc(C2CC2NCc2ccncc2)cc1 (racemic) [Compound 21] here?
Answer: > 100000 nM

Question: Which IC50 [2, 5] does the source give for CC(=O)NC1CC1c1ccc(Br)cc1 (racemic) [Compound 22] here?
Answer: 15400 nM

Question: For O=C(Nc1ccccc1)NC1CC1c1ccc(Br)cc1 (racemic) [Compound 23], which IC50 [2, 5] is on record?
Answer: 7400 nM

Question: Which IC50 [2, 5] does the source give for Brc1ccc(C2CC2N=Cc2ccccc2)cc1 (racemic) [Compound 24] here?
Answer: 15600 nM

Question: With Brc1ccc(C=NC2CC2c2ccc(Br)cc2)cc1 (racemic) [Compound 25] as the compound, how does the IC50 [2, 5] read?
Answer: 1200 nM

Question: And the “fold more active against LSD1 than compound 24” value [2]?
Answer: > 10 ×

Question: Which IC50 [1] does the source give for COc1ccccc1C=NC1CC1c1ccc(Br)cc1 (racemic) [Compound 26] here?
Answer: 300 nM

Question: And the “selectivity for LSD1 inhibition” value [2]?
Answer: no LSD1 selectivity was observed

Question: What about the IC50 [2, 5] of the same compound?
Answer: 740 nM

Question: What about the IC50 ([2]; Table 2) of the same compound?
Answer: 740 nM

Question: And the “Selectivity index for LSD1” value ([2]; Table 2)?
Answer: <0.54

Question: What about the “fold more active against LSD1 than compound 24” value [2] of the same compound?
Answer: > 10 ×

Question: And the IC50 [3]?
Answer: 400 nM

Question: For COc1cccc(C=NC2CC2c2ccc(Br)cc2)c1 (racemic) [Compound 27], which IC50 [2, 5] is on record?
Answer: 900 nM

Question: What about the “fold more active against LSD1 than compound 24” value [2] of the same compound?
Answer: > 10 ×

Question: For CN(C)c1ccc(C=NC2CC2c2ccc(Br)cc2)cc1 (racemic) [Compound 29], which “LSD1 inhibitory activity in words” value [2] is on record?
Answer: only modest activities

Question: What about the IC50 [2, 5] of the same compound?
Answer: 11000 nM

Question: Which results are given for Brc1ccc(C2CC2N=Cc2ccncc2)cc1 (racemic) [Compound 30]?
Answer: LSD1 inhibitory activity in words [2]: only modest activities; IC50 [2, 5]: 14000 nM

Question: What does the source list for O=C(CNNC1CC1c1ccccc1)N1CCNCC1 (racemic) [Compound 32]?
Answer: IC50 [1]: 97500 nM; selectivity for LSD1 inhibition [2]: > 150 fold; IC50 [2, 5]: 670 nM; IC50 ([2]; Table 2): 670 nM; Selectivity index for LSD1 ([2]; Table 2): >145; fold less active against LSD1 than cyclopropylamine analog 13 ([2]; comparator compound 13): ~ 3 ×; fold enhanced LSD1 activity over 31 ([2]; comparator compound 31): ~ 9 fold; IC50 [3]: 370000 nM

Question: Which IC50 [2, 5] does the source give for O=C(NNC1CC1c1ccccc1)N1CCNCC1 (racemic) [Compound 33] here?
Answer: 84000 nM

Question: With Brc1ccc(C2CC2NNCC2CCNCC2)cc1 (racemic) [Compound 34] as the compound, how does the IC50 [2, 5] read?
Answer: 1700 nM

Question: What about the “fold less active against LSD1 than cyclopropylamine analog 15” value ([2]; comparator compound 15) of the same compound?
Answer: ~ 7 ×

Question: With Brc1ccc(C2CC2NCc2ccccc2)cc1 (stereo not shown) [Compound 17] as the compound, how does the IC50 [2, 5] read?
Answer: 5000 nM

Question: Which results are given for NNC1CC1c1ccccc1 (stereo not drawn) [Compound 31, Trans-phenyl cyclopropyl hydrazine]?
Answer: IC50 [1]: 40700 nM; IC50 [2, 5]: 5800 nM; Selectivity index for LSD1 ([2]; Table 2): >7; IC50 [3]: 87000 nM

Question: How did the IC50 [2, 5] turn out when CN1CCN(C(=O)CNCC#Cc2ccccc2)CC1 [Compound 35, 1-(4-methylpiperazin-1-yl)-2-((3-phenylprop-2-yn-1-yl)amino)ethan-1-one] was run?
Answer: 36400 nM

Reference: PMC5291514, “Structure activity relationship and modeling studies of inhibitors of lysine specific demethylase 1” (PLoS ONE, 2017)
